Test results reported in patent US9809532B2, “Uses of histone acetyltransferase activators” (THE TRUSTEES OF COLUMBIA UNIVERSITY IN THE CITY OF NEW YORK, priority 2011, dated 2017).

What was measured:
HDAC6 = target: T1, HDAC6 (Homo sapiens, UniProt Q9UBN7); test: HDAC6 activity assay (fluorescence); conditions: Compound 1 Log [nM] 4.0; Repeat1/Repeat2
T1 sequence (Q9UBN7 1-1215): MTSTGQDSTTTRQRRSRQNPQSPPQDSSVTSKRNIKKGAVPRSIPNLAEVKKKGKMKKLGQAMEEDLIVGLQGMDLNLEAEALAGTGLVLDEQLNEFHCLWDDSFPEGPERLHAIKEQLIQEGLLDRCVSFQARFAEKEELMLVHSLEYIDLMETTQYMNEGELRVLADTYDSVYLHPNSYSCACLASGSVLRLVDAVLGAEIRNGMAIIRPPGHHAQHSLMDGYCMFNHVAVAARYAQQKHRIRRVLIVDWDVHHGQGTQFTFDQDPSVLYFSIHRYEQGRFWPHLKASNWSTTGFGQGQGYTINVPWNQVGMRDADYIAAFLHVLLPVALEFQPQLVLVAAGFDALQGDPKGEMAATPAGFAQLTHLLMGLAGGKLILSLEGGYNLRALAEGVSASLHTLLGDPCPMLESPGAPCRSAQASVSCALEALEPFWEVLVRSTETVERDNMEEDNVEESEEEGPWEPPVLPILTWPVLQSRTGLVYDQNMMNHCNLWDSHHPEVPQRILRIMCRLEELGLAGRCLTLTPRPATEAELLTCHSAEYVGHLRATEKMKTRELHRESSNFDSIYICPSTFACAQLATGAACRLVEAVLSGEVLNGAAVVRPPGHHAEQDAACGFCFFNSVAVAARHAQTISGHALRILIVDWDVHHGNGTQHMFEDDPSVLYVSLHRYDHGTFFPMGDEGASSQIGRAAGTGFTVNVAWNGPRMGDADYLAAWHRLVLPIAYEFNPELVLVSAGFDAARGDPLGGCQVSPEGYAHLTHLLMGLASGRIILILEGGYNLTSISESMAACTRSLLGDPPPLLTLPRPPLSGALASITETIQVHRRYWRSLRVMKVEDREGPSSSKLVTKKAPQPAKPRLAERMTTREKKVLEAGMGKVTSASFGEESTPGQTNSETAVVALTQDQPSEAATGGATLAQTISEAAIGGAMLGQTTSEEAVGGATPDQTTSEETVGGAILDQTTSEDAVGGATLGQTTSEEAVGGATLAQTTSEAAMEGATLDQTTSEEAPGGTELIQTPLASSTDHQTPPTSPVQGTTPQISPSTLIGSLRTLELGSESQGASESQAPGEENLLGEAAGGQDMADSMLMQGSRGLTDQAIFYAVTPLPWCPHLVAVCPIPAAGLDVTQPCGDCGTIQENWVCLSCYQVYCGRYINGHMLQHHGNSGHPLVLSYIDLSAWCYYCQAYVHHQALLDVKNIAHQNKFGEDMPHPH

HDAC7 = target: T2, HDAC7 (Homo sapiens, UniProt Q8WUI4); test: HDAC7 activity assay (fluorescence)
T2 sequence (Q8WUI4 1-952): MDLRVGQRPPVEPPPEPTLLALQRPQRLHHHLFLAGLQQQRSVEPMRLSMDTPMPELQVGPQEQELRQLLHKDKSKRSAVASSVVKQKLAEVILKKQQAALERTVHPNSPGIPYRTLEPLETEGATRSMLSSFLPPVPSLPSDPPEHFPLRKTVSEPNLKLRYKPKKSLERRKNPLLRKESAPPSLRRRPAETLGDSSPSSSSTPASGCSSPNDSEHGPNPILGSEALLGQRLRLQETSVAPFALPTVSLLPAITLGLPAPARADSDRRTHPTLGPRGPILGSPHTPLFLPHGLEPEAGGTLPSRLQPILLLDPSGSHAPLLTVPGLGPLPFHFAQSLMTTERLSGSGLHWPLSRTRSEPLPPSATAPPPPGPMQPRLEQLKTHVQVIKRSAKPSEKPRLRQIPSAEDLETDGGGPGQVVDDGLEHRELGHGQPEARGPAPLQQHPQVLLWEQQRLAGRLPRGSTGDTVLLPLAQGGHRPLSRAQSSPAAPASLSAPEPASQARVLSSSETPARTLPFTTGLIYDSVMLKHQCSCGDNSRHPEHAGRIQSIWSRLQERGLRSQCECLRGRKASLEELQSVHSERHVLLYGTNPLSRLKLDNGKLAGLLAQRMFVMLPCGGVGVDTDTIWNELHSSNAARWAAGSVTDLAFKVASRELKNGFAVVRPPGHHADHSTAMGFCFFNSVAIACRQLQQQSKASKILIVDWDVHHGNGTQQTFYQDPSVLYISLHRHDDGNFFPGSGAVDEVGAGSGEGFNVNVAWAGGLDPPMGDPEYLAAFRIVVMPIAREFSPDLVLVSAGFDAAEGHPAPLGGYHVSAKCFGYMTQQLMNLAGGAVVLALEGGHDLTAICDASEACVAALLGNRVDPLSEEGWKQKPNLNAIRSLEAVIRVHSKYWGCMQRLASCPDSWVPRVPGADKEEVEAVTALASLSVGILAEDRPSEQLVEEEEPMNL

[1] = tested on: ACH3 (acetylated histone H3); test: Western blotting for ACH3 in hippocampus after administration; type: in vivo, mice
Procedure: Two and four hrs after its administration, the mice were sacrificed and hippocampi were extracted. […] Purity was verified through Nuclear Magnetic Resonance (NMR) spectroscopy. […] Hippocampus extraction was made at 3 different time points (0.5, 1 and 2 hrs post treatment). A western blotting for ACH3 was then performed.

BDNF = BDNF levels in hippocampi of Aβ-infused mice; type: in vivo; conditions: for hippocampal BDNF levels after Aβ infusion: 20 mg/kg, i.p., 90 min before harvesting, Aβ-infused mice
Excerpt: 3(1): p. 12-29; Caccamo, A., et al., CBP gene transfer increases BDNF levels and ameliorates learning and memory deficits in a mouse model of Alzheimer's disease. Proc Natl Acad Sci USA, 2010. 107(52): p. 22687-92; each herein incorporated by reference in its entirety). […] The Journal of Neuroscience: The Official Journal of the Society for Neuroscience, 2007. 27(10): p. 2628-35; each herein incorporated by reference in its entirety). Thus, preliminary studies on Compound 1 efficacy were extended to BDNF. BDNF levels in the hippocampi of Aβ-infused mice were measured compared to vehicle infused animals. Consistent with the decrease in BDNF levels in brains of AD patients and animal models of AD, a reduction of BDNF levels following Aβ infusion was found (FIG. 23).

## CCOc1cccc(OCCN(C)C)c1C(=O)Nc1ccc(Cl)c(C(F)(F)F)c1 [Compound 1]
HDAC6
  % Activity (HDAC6): 94.62%
HDAC7
  IC50: > 200 µM
[1]; 50 mg/kg i.p., 2 and 4 hrs, FIG. 1
  ACH3 in hippocampus: increase ACH3
[1]; 5, 10, 20 mg/Kg i.p. in saline, 0.5, 1, 2 hrs, except 1 hr-10 mg/kg, FIG. 2
  ACH3 levels in hippocampus: dramatically increased ACH3 levels
BDNF
  hippocampal BDNF levels after Aβ infusion: rescued
BDNF; listed as YF2
  hippocampal BDNF levels after Aβ infusion: rescued Aβ-induced decrease in hippocampal BDNF levels
BDNF; vehicle-infused mice
  hippocampal BDNF levels: increased BDNF levels
